Test results taken from the supplement of paper PMC8149375.

Experiments:
Details in all cases: treatment: drug + dasatinib (fixed dose, not stated); 5 days
786-O [1] = test: minimum viability across doses, drug + dasatinib, relative to DMSO (fraction); higher = less growth inhibition
Method: (§1)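 Primary HTS combination arm: 8 RCC cell lines treated with 8 doses (up to 10 uM) of each library drug plus a fixed dose of dasatinib (dose not stated) for 5 days; viability read by CellTiter-Glo and normalised to DMSO. GI50 was fitted with XLfit, AUC is the area under the dose-response curve, and minimum viability is the lowest fraction of DMSO viability across doses.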

CAKI-1 [2] = test: as above
Method: as §1

769-P [3] = test: as above
Method: as §1

TK-10 [4] = test: as above
Method: as §1

A498 [5] = test: as above
Method: as §1

ACHN [6] = test: as above
Method: as §1

SN12C [7] = test: as above
Method: as §1

UO-31 [8] = test: as above
Method: as §1

786-O [9] = test: AUC of dose-response viability curve, drug + dasatinib, normalised to DMSO (arbitrary (AUC of normalised viability)); higher = less growth inhibition
Method: as §1

CAKI-1 [10] = test: as above
Method: as §1

769-P [11] = test: as above
Method: as §1

TK-10 [12] = test: as above
Method: as §1

A498 [13] = test: as above
Method: as §1

ACHN [14] = test: as above
Method: as §1

SN12C [15] = test: as above
Method: as §1

UO-31 [16] = test: as above
Method: as §1

CAKI-1 [17] = test: GI50 of drug in presence of dasatinib; higher = less potent
Method: as §1

769-P [18] = test: as above
Method: as §1

TK-10 [19] = test: as above
Method: as §1

A498 [20] = test: as above
Method: as §1

SN12C [21] = test: as above
Method: as §1

UO-31 [22] = test: as above
Method: as §1

786-O [23] = test: as above
Method: as §1

SMILES | GI50 of drug (786-O [23]) | minimum viability across doses (786-O [1]) | minimum viability across doses (CAKI-1 [2]) | minimum viability across doses (769-P [3]) | minimum viability across doses (TK-10 [4]) | minimum viability across doses (A498 [5]) | minimum viability across doses (ACHN [6]) | minimum viability across doses (SN12C [7]) | minimum viability across doses (UO-31 [8]) | AUC of dose-response viability curve (786-O [9]) | AUC of dose-response viability curve (CAKI-1 [10]) | AUC of dose-response viability curve (769-P [11]) | AUC of dose-response viability curve (TK-10 [12]) | AUC of dose-response viability curve (A498 [13]) | AUC of dose-response viability curve (ACHN [14]) | AUC of dose-response viability curve (SN12C [15]) | AUC of dose-response viability curve (UO-31 [16]) | GI50 of drug (CAKI-1 [17]) | GI50 of drug (769-P [18]) | GI50 of drug (TK-10 [19]) | GI50 of drug (A498 [20]) | GI50 of drug (SN12C [21]) | GI50 of drug (UO-31 [22])
CC1CCN(C(=O)CC#N)C[C@@H]1N(C)c1ncnc2[nH]ccc12.O=C(O)CC(O)(CC(=O)O)C(=O)O (stereo in doubt) + Cc1nc(Nc2ncc(C(=O)Nc3c(C)cccc3Cl)s2)cc(N2CCN(CCO)CC2)n1 [dasatinib] |  | 0.439 | 0.567 | 0.681 | 0.647 | 0.887 | 0.304 | 0.69 | 0.934 | 1.92 | 2.56 | 2.6 | 2.51 | 3.5 | 1.7 | 2.48 | 3.69 | > 10 µM | > 10 µM | > 10 µM | > 10 µM | > 10 µM | > 10 µM
O=C1Nc2ccccc2/C1=C1/Nc2ccccc2C1=O [Indirubin] + Cc1nc(Nc2ncc(C(=O)Nc3c(C)cccc3Cl)s2)cc(N2CCN(CCO)CC2)n1 [dasatinib] |  | 0.394 | 0.497 | 0.632 | 0.593 | 0.941 | 0.435 | 0.624 | 0.799 | 1.76 | 2.02 | 2.38 | 2.48 | 3.41 | 1.65 | 2.36 | 3.15 | > 10 µM | > 10 µM | > 10 µM | > 10 µM | > 10 µM | > 10 µM
COc1ccc2c(c1OC)N=C(NC(=O)c1cccnc1)N1CCN=C21 [PIK-90] + Cc1nc(Nc2ncc(C(=O)Nc3c(C)cccc3Cl)s2)cc(N2CCN(CCO)CC2)n1 [dasatinib] |  | 0.388 | 0.136 | 0.268 | 0.552 | 0.762 | 0.235 | 0.52 | 0.434 | 1.76 | 1.82 | 2.03 | 2.3 | 3.11 | 1.7 | 2.21 | 2.69 | 0.424 µM | 1.48 µM | > 10 µM | > 10 µM | 2.26 µM | 3.82 µM

More lines, main results first:

GI50 of drug (786-O [23]) | SMILES | minimum viability across doses (786-O [1]) | minimum viability across doses (CAKI-1 [2]) | minimum viability across doses (769-P [3]) | minimum viability across doses (TK-10 [4]) | minimum viability across doses (A498 [5]) | minimum viability across doses (ACHN [6]) | minimum viability across doses (SN12C [7]) | minimum viability across doses (UO-31 [8]) | AUC of dose-response viability curve (786-O [9]) | AUC of dose-response viability curve (CAKI-1 [10]) | AUC of dose-response viability curve (769-P [11]) | AUC of dose-response viability curve (TK-10 [12]) | AUC of dose-response viability curve (A498 [13]) | AUC of dose-response viability curve (ACHN [14]) | AUC of dose-response viability curve (SN12C [15]) | AUC of dose-response viability curve (UO-31 [16]) | GI50 of drug (CAKI-1 [17]) | GI50 of drug (769-P [18]) | GI50 of drug (TK-10 [19]) | GI50 of drug (A498 [20]) | GI50 of drug (SN12C [21]) | GI50 of drug (UO-31 [22])
> 10 µM | OCCn1cc(-c2cnc3nnn(Cc4ccc5ncccc5c4)c3n2)cn1 + Cc1nc(Nc2ncc(C(=O)Nc3c(C)cccc3Cl)s2)cc(N2CCN(CCO)CC2)n1 [dasatinib] | 0.702 | 0.408 | 0.651 | 0.688 | 0.872 | 0.448 | 0.614 | 0.926 | 2.79 | 2.02 | 2.44 | 2.57 | 3.25 | 1.77 | 2.32 | 3.41 |  | > 10 µM | > 10 µM | > 10 µM | > 10 µM | > 10 µM
2.37 µM | NC(=O)c1ccc(-c2nc(-c3ccc4c(c3)OCO4)c(-c3ccccn3)[nH]2)cc1 + Cc1nc(Nc2ncc(C(=O)Nc3c(C)cccc3Cl)s2)cc(N2CCN(CCO)CC2)n1 [dasatinib] | 0.485 | 0.456 | 0.234 | 0.636 | 0.592 | 0.317 | 0.446 | 0.844 | 2.24 | 2.18 | 1.77 | 2.75 | 3.17 | 2.08 | 2.41 | 3.57 | 3 µM |  | > 10 µM | > 10 µM | > 10 µM | > 10 µM
1.48 µM | CC[C@H](Nc1ncnc2[nH]cnc12)c1nc2cccc(F)c2c(=O)n1-c1ccccc1 [CAL-101 (GS-1101)] + Cc1nc(Nc2ncc(C(=O)Nc3c(C)cccc3Cl)s2)cc(N2CCN(CCO)CC2)n1 [dasatinib] | 0.298 | 0.0955 | 0.477 | 0.493 | 0.843 | 0.341 | 0.546 | 0.362 | 2.12 | 1.84 | 2.32 | 2.44 | 3.29 | 1.86 | 2.3 | 3.55 |  | 7.53 µM | 8.33 µM | > 10 µM | > 10 µM | 6.29 µM
